Test results published in patent US8697709B2, “Fused ring heteroaryl kinase inhibitors” (The Regents of the University of California, priority 2008, dated 2014).

Test system: T315I Bcr-Abl BaF3 cells
Test: Cell proliferation (Resazurin) of T315I Bcr-Abl transduced BaF3 cells
Format: cell-based
Details: two day treatment, without IL-3

CC(C)n1nc(-c2ccc(NC(=O)Nc3cccc(C(F)(F)F)c3)cc2)c2c(N)ncnc21 [AD57, 1-(4-(4-amino-1-isopropyl-1H-pyrazolo[3,4-d]pyrimidin-3-yl)phenyl)-3-(3-(trifluoromethyl)phenyl)urea]
inhibition of growth of T315I Bcr-Abl BaF3 cells: equally inhibits the growth
